Legend:
[1] = target: T1, α2AAR (α2A-adrenergic receptor) (Homo sapiens, UniProt P08913); assay: α2AAR FLIPR assay (agonist activity); assay type: cell-based; conditions: FLIPR, α2AAR cell line hosted in HEK293 cells; read-out: α2A agonist activity (EC50)
T1 construct: expressed in transfected cells; host or cells: HEK293
T1 sequence (P08913 1-465): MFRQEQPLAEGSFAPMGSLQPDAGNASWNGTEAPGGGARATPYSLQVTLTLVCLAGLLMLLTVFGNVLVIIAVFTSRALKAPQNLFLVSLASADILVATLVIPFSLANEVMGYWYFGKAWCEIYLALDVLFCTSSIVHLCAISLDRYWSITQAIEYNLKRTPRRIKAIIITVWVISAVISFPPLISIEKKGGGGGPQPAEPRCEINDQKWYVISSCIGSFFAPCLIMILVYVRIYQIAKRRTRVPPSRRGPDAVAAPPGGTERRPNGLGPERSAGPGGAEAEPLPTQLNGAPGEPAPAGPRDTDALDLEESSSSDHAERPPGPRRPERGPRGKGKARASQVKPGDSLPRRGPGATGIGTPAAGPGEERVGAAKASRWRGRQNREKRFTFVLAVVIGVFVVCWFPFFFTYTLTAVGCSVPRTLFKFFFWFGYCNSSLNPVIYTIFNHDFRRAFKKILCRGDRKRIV
Method: This experimental protocol involved cell seeding and a FLIPR assay using the α2AAR (α2A-adrenergic receptor) cell line hosted in HEK293 cells. […] On Day 1, the cell seeding process started with the removal of the culture medium, followed by rinsing the cells with DPBS (21-031-CVC, Corning). […] The cells were detached, resuspended in growth media, and centrifuged at room temperature at 1000 rpm for 5 minutes. After discarding the supernatant, the cell pellet was resuspended in growth media to a concentration of 10× 10^5 cells per mL. This suspension was added to 384-well plates (19-Jul-38, Greiner) at 20 μL per well and incubated overnight at 37° C. in 5% CO2.
A 250 mM Probenecid solution was prepared in this buffer. The Fluo-4 Direct™ Loading Buffer was made by dissolving Fluo-4 Direct™ crystals (F10471, Invitrogen) in the FLIPR Assay Buffer and adding Probenecid. The buffer was then vortexed and allowed to stand for over 5 minutes, shielded from light. For the FLIPR procedure, testing compounds for agonist activite were serially diluted and transferred to a 384-well compound plate (25-Jan-39, Greiner). The cell plate was then treated with 2× Fluo-4 Direct™ loading buffer and incubated for 50 minutes at 37° C. in a 5% CO2 atmosphere, followed by 10 minutes at room temperature. Subsequently, the FLIPR assay buffer was added to the compound plate, which is then centrifuged.
The cell plate was analyzed in the FLIPR Tetra+ System for fluorescence signals. For the agonist test, reference compounds were added to the cell plates, and fluorescence was measured. The “Max-Min” calculation began from Read 1 to the maximum allowed. The data were analyzed using Prism software to calculate activation percentage for agonists and inhibition percentage for antagonists. The results were then fitted using specific models to determine EC50 for agonists.
The experimental protocol utilized various reagents and apparatus, including Penicillin/Streptomycin (100×) (SV30010, Hyclone), Poly-L-lysine hydrobromide (P1399, Sigma), and different types of 384-well plates such as the 384-Well PP 2.0 Microplate (PP-0200, LABCYTE) and 384 well Low Dead Volume Microplate (LP-0200, LABCYTE). The use of specific reference compounds like UK14304 was also integral to the assay.

α2AAR = target: T2, α2AAR (Homo sapiens, UniProt P08913); assay: α2AAR binding assay ([3H]-RX 821002 radioligand); conditions: [3H]-RX 821002 0.5 nM, HEK293 membranes; read-out: α2A affinity (Ki)
T2 construct: host or cells: HEK293 (membranes)
T2 sequence (P08913 1-465): T1 sequence (P08913 1-465)

Row | Compound | EC50 [1] | Ki (α2AAR)
1 | Cc1cccc(C(Cc2ccc(C(C)C(=O)O)cc2)c2c[nH]cn2)c1C (single isomer, unassigned) [174-D] | 10 to 50 nM | 10 to 50 nM
2 | Cc1cccc(C(Cc2ccc(C(=O)O)cc2)c2c[nH]cn2)c1C (single isomer, unassigned) [175-B] | 10 to 50 nM | 50 to 250 nM
3 | CONC(=O)c1cccc(C(c2c[nH]cn2)c2cccc(C)c2C)c1 (stereo not drawn) [compound 1] | 50 to 250 nM | 50 to 250 nM
4 | Cc1cccc(C(COCCOCCNC(=O)Nc2ccncn2)c2c[nH]cn2)c1C (stereo not drawn) [compound 20] | 10 to 50 nM | 50 to 250 nM
5 | Cc1cccc(C(c2cccc(OCCNS(C)(=O)=O)c2)c2c[nH]cn2)c1C (stereo not drawn) [compound 22] | 10 to 50 nM | 10 to 50 nM
6 | Cc1cccc(C(COCCOCCOCCNS(C)(=O)=O)c2c[nH]cn2)c1C (stereo not drawn) [compound 26] | 10 to 50 nM | 50 to 250 nM
7 | Cc1cccc(C(c2c[nH]cn2)c2cccc(C(N)=O)c2F)c1C (stereo not drawn) [compound 27] | 10 to 50 nM | < 10 nM
8 | CNS(=O)(=O)c1cccc(C(c2c[nH]cn2)c2cccc(C)c2C)c1 (stereo not drawn) [compound 28] | 10 to 50 nM | 10 to 50 nM
9 | Cc1cccc(C(c2cccc(NS(C)(=O)=O)c2)c2c[nH]cn2)c1C (stereo not drawn) [compound 29] | 10 to 50 nM | < 10 nM
10 | CC(=O)Nc1cccc(C(c2c[nH]cn2)c2cccc(C)c2C)c1 (stereo not drawn) [compound 30] | 50 to 250 nM | 50 to 250 nM
11 | Cc1cccc(C(c2ccnc(C(N)=O)c2)c2c[nH]cn2)c1C (stereo not drawn) [compound 31] | 10 to 50 nM | 50 to 250 nM
12 | Cc1cccc(C(c2cccc(NCCC#N)c2)c2c[nH]cn2)c1C (stereo not drawn) [compound 32] | 50 to 250 nM | 50 to 250 nM
13 | Cc1cccc(C(c2cccc(NC(=O)CCC#N)c2)c2c[nH]cn2)c1C (stereo not drawn) [compound 43] | 10 to 50 nM | 10 to 50 nM
14 | CC(=O)Nc1cccc(C(c2c[nH]cn2)c2cccc(C)c2C)c1F (stereo not drawn) [compound 50] | 50 to 250 nM | 50 to 250 nM
15 | Cc1cccc(C(c2c[nH]cn2)c2cccc(NS(C)(=O)=O)c2F)c1C (stereo not drawn) [compound 51] | 50 to 250 nM | 10 to 50 nM
16 | CONC(=O)c1cccc(C(c2c[nH]cn2)c2cccc(C)c2C)c1F (stereo not drawn) [compound 54] | 10 to 50 nM | 10 to 50 nM
17 | CONC(=O)c1cccc(CC(c2c[nH]cn2)c2cccc(C)c2C)c1 (stereo not drawn) [compound 61] | 10 to 50 nM | 10 to 50 nM
18 | CSCCC(=O)Nc1cccc(C(c2c[nH]cn2)c2cccc(C)c2C)c1 (stereo not drawn) [compound 63] | 10 to 50 nM | 10 to 50 nM
19 | Cc1cccc(C(c2cccc(NC(=O)CCN3CCOCC3)c2)c2c[nH]cn2)c1C (stereo not drawn) [compound 70] | 10 to 50 nM | 10 to 50 nM
20 | Cc1cccc(C(Cc2cccc(NS(C)(=O)=O)c2)c2c[nH]cn2)c1C (stereo not drawn) [compound 76] | 50 to 250 nM | < 10 nM
21 | Cc1cccc(C(c2cccc(NC(=O)CC3CCNC3)c2)c2c[nH]cn2)c1C (stereo not drawn) [compound 79] | 50 to 250 nM | 10 to 50 nM
22 | Cc1cccc(C(c2cccc(C(=O)CCC#N)c2)c2c[nH]cn2)c1C (stereo not drawn) [compound 85] | 50 to 250 nM | 10 to 50 nM
23 | Cc1cccc(C(c2cccc(NS(=O)(=O)CC3CCOC3)c2)c2c[nH]cn2)c1C (stereo not drawn) [compound 86] | 10 to 50 nM | < 10 nM

Row | Compound | EC50 [1] | Ki (α2AAR)
24 | Cc1cccc(C(c2cccc(NC(=O)CCCN3CCOCC3)c2)c2c[nH]cn2)c1C (stereo not drawn) [compound 88] | 50 to 250 nM | 10 to 50 nM
25 | Cc1cccc(C(c2cccc(NC(=O)CCN3CCCC3)c2)c2c[nH]cn2)c1C (stereo not drawn) [compound 89] | 50 to 250 nM | 10 to 50 nM
26 | Cc1cccc(C(c2cccc(NC(=O)CCN3CCNCC3)c2)c2c[nH]cn2)c1C (stereo not drawn) [compound 90] | 50 to 250 nM | 50 to 250 nM
27 | Cc1cccc(C(c2cccc(NS(=O)(=O)CCN3CCOCC3)c2)c2c[nH]cn2)c1C (stereo not drawn) [compound 94] | 50 to 250 nM | 50 to 250 nM
28 | Cc1cccc(C(c2cccc(NC(=O)CC3CCCCO3)c2)c2c[nH]cn2)c1C (stereo not drawn) [compound 96] | 10 to 50 nM | < 10 nM
29 | CC(=O)N1CCC(CC(=O)Nc2cccc(C(c3c[nH]cn3)c3cccc(C)c3C)c2)CC1 (stereo not drawn) [compound 102] | 10 to 50 nM | 10 to 50 nM
30 | Cc1cccc(C(c2cccc(NC(=O)CC3CCCOC3)c2)c2c[nH]cn2)c1C (stereo not drawn) [compound 104] | 10 to 50 nM | < 10 nM
31 | Cc1cccc(C(c2cccc(NC(=O)CC3CCS(=O)(=O)CC3)c2)c2c[nH]cn2)c1C (stereo not drawn) [compound 117] | < 10 nM | 10 to 50 nM
32 | Cc1cccc(C(c2cccc(NS(=O)(=O)CC3CCOCC3)c2)c2c[nH]cn2)c1C (stereo not drawn) [compound 119] | 10 to 50 nM | < 10 nM
33 | Cc1cccc(C(c2cccc(NC(=O)CC3=CCOCC3)c2)c2c[nH]cn2)c1C (stereo not drawn) [compound 120] | < 10 nM | < 10 nM
34 | Cc1cccc(C(c2cccc(NC(=O)CN3CCC(O)CC3)c2)c2c[nH]cn2)c1C (stereo not drawn) [compound 123] | 10 to 50 nM | < 10 nM
35 | Cc1cccc(C(c2c[nH]cn2)c2cccc(C(=O)NCC3CCOCC3)c2F)c1C (stereo not drawn) [compound 124] | 10 to 50 nM | < 10 nM
36 | CCOP(=O)(OCC)c1cccc(C(c2c[nH]cn2)c2cccc(C)c2C)c1 (stereo not drawn) [compound 126] | 10 to 50 nM | < 10 nM
37 | Cc1cccc(C(c2cccc(S(N)(=O)=O)c2)c2c[nH]cn2)c1C (stereo not drawn) [compound 133] | 10 to 50 nM | 10 to 50 nM
38 | Cc1cccc(C(Cc2cccc(NS(=O)(=O)C3CCOCC3)c2)c2c[nH]cn2)c1C (stereo not drawn) [compound 134] | 10 to 50 nM | < 10 nM
39 | Cc1cccc(C(COCCNS(=O)(=O)CC2CCOCC2)c2c[nH]cn2)c1C (stereo not drawn) [compound 139] | 10 to 50 nM | 10 to 50 nM
40 | Cc1cccc(C(c2cccc(NC(=O)CC[n+]3ccccc3)c2)c2c[nH]cn2)c1C (stereo not drawn) [compound 143] | 50 to 250 nM | 10 to 50 nM
41 | Cc1cccc(C(c2cccc(C(=O)NOC3CCOCC3)c2)c2c[nH]cn2)c1C (stereo not drawn) [compound 145] | 10 to 50 nM | < 10 nM
42 | CNC(=O)Nc1cccc(C(c2c[nH]cn2)c2cccc(C)c2C)n1 (stereo not drawn) [compound 146] | 10 to 50 nM | 10 to 50 nM
43 | COCCC(=O)Nc1cccc(C(c2c[nH]cn2)c2cccc(C)c2C)c1 (stereo not drawn) [compound 147] | 10 to 50 nM | 10 to 50 nM
44 | COCCCC(=O)Nc1cccc(C(c2c[nH]cn2)c2cccc(C)c2C)c1 (stereo not drawn) [compound 148] | 10 to 50 nM | 10 to 50 nM
45 | Cc1cccc(C(c2cccc(NC(=O)C3CCOCC3)c2)c2c[nH]cn2)c1C (stereo not drawn) [compound 149] | 10 to 50 nM | 10 to 50 nM
